Data published in US20070155730A1, “Benzodiazepine And Benzopiperazine Analog Inhibitors Of Histone Deacetylase” (METHYLGENE, INC., priority 2005, published 2007).

Biological target: histone deacetylase (HDAC)
Assay: Inhibition of Histone Deacetylase Enzymatic Activity
Format: biochemical
Conditions: substrate Boc-Lys(Ac)-AMC, Fluor-de-Lys developer, 37° C., 20 min; against one or more of HDAC-1 to HDAC-11, SirT1 to SirT7 (isoform not given); read-out: HDAC Inhibitory Activity (IC50)
Summary of the method: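 Enzyme preincubated with compound at room temperature in 25 mM HEPES pH 8.0, 137 mM NaCl, 2.7 mM KCl, 1 mM MgCl2; reaction started at 37 °C with Boc-Lys(Ac)-AMC substrate. Fluorescence read ex 360/em 470 nm after 10 min dark incubation; activity binned into ranges A–D (<0.05 to <10 μM).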

First: O=C(NO)c1ccc2c(c1)NC(=O)[C@H](CC1CCCCC1)NC2=O [Compound 97h, (S)-3-(Cycbohexylmethyl)-N-hydroxy-2,5-dioxo-2,3,4,5-tetrahydro-1H-benzo[e][1,4]diazepine-8-carboxamide]
Second: O=C1CNC(=O)c2ccc(C(=O)NO)cc2N1 [Compound 97k, N-Hydroxy-2,5-dioxo-2,3,4,5-tetrahydro-1H-benzo[e][1,4]diazepine-8-carboxamide]
The IC50 of the first is lower: 500 to 2000 nM for the first, 2000 to 10000 nM for the second. The first is the more potent here.

O=C(NO)c1ccc2c(c1)NC(=O)[C@H](c1ccccc1)NC2=O [Compound 97i, (S)-N-Hydroxy-2,5-dioxo-3-phenyl-2,3,4,5-tetrahydro-1H-benzo[e][1,4]diazepine-8-carboxamide] and O=C(NO)c1ccc2c(c1)NC(=O)[C@@H](c1ccccc1)NC2=O [Compound 97j, (R)-N-Hydroxy-2,5-dioxo-3-phenyl-2,3,4,5-tetrahydro-1H-benzo[e][1,4]diazepine-8-carboxamide] fall in the same range of IC50: 2000 to 10000 nM for the first, 2000 to 10000 nM for the second.

O=C(NO)c1ccc(O[C@H]2C[C@@H](C(=O)Nc3cccc4cccnc34)N(C(=O)OCc3ccccc3)C2)cc1 [Compound 109a, (2S,4S)-Benzyl 4-(4-(hydroxycarbamoyl)phenoxy)-2-(quinolin-8-ylcarbamoyl)pyrrolidine-1-carboxylate] and O=C(NO)c1ccc(O[C@@H]2C[C@@H](C(=O)Nc3cccc4cccnc34)N(C(=O)OCc3ccccc3)C2)cc1 [Compound 109b, (2S,4R)- Benzyl 4-(4-(hydroxycarbamoyl)phenoxy)-2-(quinolin-8-ylcarbamoyl) pyrrolidine-1-carboxylate] fall in the same range of IC50: 50 to 500 nM for the first, 50 to 500 nM for the second.

First: O=C(NO)c1ccc(O[C@H]2C[C@H](C(=O)Nc3cccc4cccnc34)N(C(=O)OCc3ccccc3)C2)cc1 [Compound 109c, (2R,4S)- Benzyl 4-(4-(hydroxycarbamoyl)phenoxy)-2-(quinolin-8-ylcarbainoyl) pyrrolidine-1-carboxylate]
Second: O=C(CO[C@@H]1CC(C(=O)Nc2cccc3cccnc23)N(C(=O)OCc2ccccc2)C1)NO (stereo partly drawn) [Compound 112b, (2S,4R)-benzyl 4-(2-(hydroxyamino)-2-oxoethoxy)-2-(quinolin-8-ylcarbainoyl) pyrrolidine-1-carboxylate]
The IC50 of the first is lower: 50 to 500 nM for the first, 500 to 2000 nM for the second. The first is the more potent here.

O=C(CCO[C@@H]1C[C@@H](C(=O)Nc2cccc3cccnc23)N(C(=O)OCc2ccccc2)C1)NO [Compound 112a, (2S,4R)-benzyl 4-(3-(hydroxyamino)-3-oxopropoxy)-2-(quinolin-8-ylcarbamoyl)pyrrolidine-1-carboxylate] and O=C(CCO[C@@H]1C[C@H](C(=O)Nc2cccc3cccnc23)N(C(=O)OCc2ccccc2)C1)NO [Compound 112c, (2R,4R)-benzyl 4-(3-(hydroxyamino)-3-oxopropoxy)-2-(quinolin-8-ylcarbamoyl) pyrrolidine-1-carboxylate] fall in the same range of IC50: 500 to 2000 nM for the first, 500 to 2000 nM for the second.

First: O=C(NO)c1ccc(NC(=O)N2c3ccccc3NC(=O)[C@H]2Cc2ccc(F)c(F)c2)cc1 [Compound 116, (R)-2-(3,4-Difluorobenzyl)-N-(4-(hydroxycarbamoyl)phenyl)-3-oxo-3,4-dihydroquinoxaline-1(2H)-carboxamide]
Second: O=C(NO)c1cccc(NC(=O)N2c3ccccc3NC(=O)[C@H]2Cc2ccc(F)c(F)c2)c1 [Compound 118, (R)-2-(3,4-difluorobenzyl)-N-(3-(hydroxycarbamoyl)phenyl)-3-oxo-3,4-dihydroquinoxaline-1(2H)-carboxamide]
The IC50 of the first is lower: < 50 nM for the first, 50 to 500 nM for the second.

O=C(NO)c1cnc(N[C@H]2C[C@@H](C(=O)Nc3cccc4cccnc34)N(C(=O)OCc3ccccc3)C2)nc1 [Compound 122, (2S,4S)-Benzyl 4-(5-(hydroxycarbamoyl)pyrimidin-2-ylamino)-2-(quinolin-8-ylcarbamoyl)pyrrolidine-1-carboxylate] and O=C(NO)c1ccc(CN2C(=O)CNC(=O)[C@H]2Cc2ccccc2)cc1 [Compound 136b, (R)-4-((2-Benzyl-3,6-dioxopiperazin-1-yl)methyl)-N-hydroxybenzamide] cannot be ordered by IC50: < 50 nM for the first, < 50 nM for the second.

First: O=C(NO)c1ccc(CN2C(=O)CNC(=O)[C@H]2Cc2c[nH]c3ccccc23)cc1 [Compound 136a, (R)-4-((2-((1H-Indol-3-yl)methyl)-3,6-dioxopiperazin-1-yl)methyl)-N-hydroxybenzamide]
Second: O=C(NO)c1ccc(CN2C(=O)CNC(=O)[C@H]2Cc2cccs2)cc1 [Compound 136c, (R)-4-((3,6-Dioxo-2-(thien-2-ylmethyl)piperazin-1-yl)methyl)-N-hydroxybenzamide]
The IC50 of the first is lower: < 50 nM for the first, 50 to 500 nM for the second. The first is the more potent here.
